In one data set the test system is Apis mellifera. The settings on record: acute; duration: 48 hours; dermal; mortality.
Another data set has as its system Daphnia magna. The settings on record: chronic/long-term; duration: 21 days.
Another data set relates to Cyprinus carpio. The settings on record: acute; duration: 96 hours; mortality.
A further data set deals with Aphidius rhopalosiphi. The settings on record: not reported.
In another data set the test system is Rattus norvegicus. Particulars: for NOAEL: body weight.
Another data set relates to Oncorhynchus mykiss. Particulars: chronic/long-term; duration: 35 days; growth.

≈ marks a conversion by molar mass, not a printed value. Some results are limits rather than exact numbers.

In the case of `O=C(Nc1ccc(F)cc1F)c1cccnc1Oc1cccc(C(F)(F)F)c1` [Diflufenican], the LD50 in the data set on Apis mellifera was over 100 µg/piece; in the data set on Bird (acute, oral, unspecified, mortality), over 2150 mg/kg; with Rattus norvegicus (acute, oral, mortality), over 5000 mg/kg. The NOEC in the data set on Daphnia magna was found to be 0.052 mg/L; with Bird (reproductive), 91.8 mg/kg; with Tagia sp. (chronic/long-term, reproduction) it was 1000 mg/kg; with Oncorhynchus mykiss, 0.015 mg/L. Also, the LC50 was 0.0985 µg/mL (≈ 0.25 µM) with Cyprinus carpio and over 1000 mg/kg in the data set on Tagia sp. (acute, duration: 14 days, mortality). The LEL in the data set with Aphidius rhopalosiphi (mortality) and in the data set with Aphidius rhopalosiphi (reproduction) was 188 g/ha in each case. For the same compound, the NOAEL (in general, the highest dose or exposure tested at which no adverse effect was seen) in the data set on Rattus norvegicus (chronic, duration: 2 years) amounted to 23.3 mg/kg-day; with Rattus norvegicus (reproduction developmental, M) it was 35.5 mg/kg-day; in the data set on Rattus norvegicus (subchronic, duration: 13 weeks, oral) it was 19.5 mg/kg-day.

These data come from EPA's ToxValDB 9.5 (doi:10.2903/j.efsa.2008.122r).
